Experimental data as given in patent US20150176022A1, “HERBICIDE-RESISTANT SUNFLOWER PLANTS, POLYNUCLEOTIDES ENCODING HERBICIDE=RESISTANT ACETO HYDROXY ACID SYNTHASE LARGE SUBUNIT PROTEINS, AND METHODS OF USE” (priority 2013, published 2015).

Key:
[1] = system: AHAS; assay: AHAS activity analysis, inhibition by herbicide (Example 5); assay type: biochemical, Helianthus annuus; details: AHAS of S4897 versus a Clearfield sunflower and a conventional non Clearfield variety; higher concentration of imazamox (FIG. 7)
Description: AHAS activity analysis was also conducted by selecting actively growing young leaves from plants that were not sprayed with herbicide at approximately four weeks after planting.

[2] = system: S4897 sunflower plants; assay: Greenhouse spray treatment with imazamox (FIG. 3, 4); assay type: in vivo, Helianthus annuus; details: S4897 versus IMISUN-1 and wild-type; imazamox 100 or 200 g ai/ha; evaluated 17 days after application
Description: (§1) The S4897 and IMISUN-1 sunflower plants were spray-treated with imazamox at rate of 200 g ai/ha. […] The photograph was taken a few days after the plants were spray treated.
(§2) FIG. 4 is graphical illustration of herbicide injury in a greenhouse test following the spray treatment of IMISUN-1, wild-type, and S4897 sunflower plants with imazamox at either 100 (light columns) or 200 g ai/ha (dark columns). […] Herbicide injury was evaluated 17 days after the imazamox application.

[3] = system: wild-type sunflower plants; assay: as above; assay type: in vivo, Helianthus annuus; details: wild-type control plants, imazamox at either 100 or 200 g ai/ha
Description: as §1, §2

[4] = system: Sunflower line S4897; assay: Greenhouse spray test, injury rating (Example 5); assay type: in vivo, Helianthus annuus; details: 14 DAT, scale 0=no injury to 9=dead plant
Source text: (§3) Sunflower lines S4897, Clearfield® sunflower varieties A, B, C and a conventional non-Clearfield variety were sprayed with three rates of imazamox (Raptor™), 100, 200 and 300 gm ai/ha plus 0.5% Sun It II and two rates of imazapyr (Arsenal™) 160 and 360 gm ai/ha plus 0.5% Sun It II when the plants were at the two to three leaf stage. Ratings were taken at 14 days after application (DAT) for injury. Injury was rated on a scale from 0 to 9 where 0=no injury to 9=dead plant. Twelve plants were sprayed per herbicide/rate treatment. Statistical analysis was conducted with STATGRAPHICS Plus 5.0 by using ANOVA and LSD procedures.
(§4) After plants were sprayed, it was realized that a height difference between S4897 and other sunflower varieties would have impacted the actual herbicide dose that was delivered. The spray boom height had been calibrated against S4897 and since the other varieties were taller and closer to the boom they would have received a greater dose of herbicide. Rates were recalibrated for the other varieties to determine the approximate dose they would have received. Assessments were made as presented in Table 2 since it was not possible to make a direct rate comparison due to the effect of the height. For example injury scores were compare for S4897 treated imazamox rate 100 gm ai/ha to the other varieties treated at 75 gm ai/ha. The treatment dose of 300 gm ai/ha for line S4897 was equivalent to the treatment of 200 gm ai/ha for the other varieties, which […].

[5] = system: Conventional non-Clearfield sunflower variety; assay: Greenhouse spray test, injury rating (Example 5); assay type: in vivo, Helianthus annuus; details: 14 DAT, scale 0=no injury to 9=dead plant
Source text: as §3, §4

[6] = system: Clearfield-Sunflower variety B; assay: Greenhouse spray test, injury rating (Example 5); assay type: in vivo, Helianthus annuus; details: 14 DAT, scale 0=no injury to 9=dead plant
Source text: as §3, §4

[7] = system: Clearfield-Sunflower variety A; assay: Greenhouse spray test, injury rating (Example 5); assay type: in vivo, Helianthus annuus; details: 14 DAT, scale 0=no injury to 9=dead plant
Source text: as §3, §4

[8] = system: Clearfield-Sunflower variety C; assay: Greenhouse spray test, injury rating (Example 5); assay type: in vivo, Helianthus annuus; details: 14 DAT, scale 0=no injury to 9=dead plant
Source text: as §3, §4

[9] = system: S4897 plants; assay: Field trials in Argentina, resistance to imazapic (Example 4); assay type: in vivo, Helianthus annuus; details: S4897 versus IMISUN-1 (Ala190-to-Val), single row plots, no data presented
Description: In field trials in Argentina, S4897 plants were tested for resistance to imazapic. […] This trial had single row plots and was treated on a windy day, so the actual herbicide dose reaching the plants was likely less than was applied.

[10] = Imazamox 300 gm ai/ha (dose received)

For COCc1cnc(C2=NC(C)(C(C)C)C(=O)N2)c(C(=O)O)c1 (stereo not shown) [imazamox], the “inhibition of AHAS activity” value [1] was “less inhibition at the higher concentration of imazamox as compared to a Clearfield® sunflower and conventional non Clearfield variety”, the “herbicide injury (resistance or tolerance)” value [2] was “significantly greater resistance or tolerance” and the “survival following spray treatment” value [3] was “did not survive”. The Injury ([4]; Imazamox 100 gm ai/ha) was 0.5 a, the Injury ([4]; Imazamox 200 gm ai/ha) was “little to no injury” and the Injury ([4]; Imazamox 200 gm ai/ha, listed as Imazamox) was 0.8 a. For the same molecule, the Injury ([4]; Imazamox 300 gm ai/ha) was “very little injury”, the Injury ([4]; Imazamox 300 gm ai/ha, listed as Imazamox) was 0.8 a and the Injury ([5]; Imazamox 75 gm ai/ha) was 7.2 days. The Injury ([5]; Imazamox 150 gm ai/ha) was 8.2 days, the Injury [5, 10] was 8.7 e and the Injury ([6]; Imazamox 75 gm ai/ha) was 1.9 b. The Injury ([6]; Imazamox 150 gm ai/ha) was 4.8 c, the Injury [6, 10] was 5.3 c and the Injury ([7]; Imazamox 75 gm ai/ha) was 4.3 c. The Injury ([7]; Imazamox 150 gm ai/ha) was “significantly injured and had stopped growing”, the Injury ([7]; Imazamox 150 gm ai/ha, listed as Imazamox) was 4.6 c and the Injury [7, 10] was 6.5 days. It also gave an Injury ([8]; Imazamox 75 gm ai/ha) of 1.8 b, an Injury ([8]; Imazamox 150 gm ai/ha) of 2.9 b and an Injury [8, 10] of 4.6 b.
For Cc1cnc(C2=NC(=O)C(C)(C(C)C)N2)c(C(=O)O)c1 (stereo not shown) [imazapic], the “resistance (tolerance) to imazapic” value [9] was “clearly superior to the IMISUN-1”.
